# Test results taken from paper PMC8049054, “Systematic Assessment of Fragment Identification for Multitarget Drug Design” (Chemmedchem, 2021).
# What was measured:
# RXRα = molecular target: T1, RXRα (Homo sapiens, UniProt P19793); assay: ITC measurement RXRα LBD; assay type: binding; design: key: n.b.: no binding; w.b.: weak binding; conditions: 50 μM protein, 250 μM compound, 25 °C
# T1 construct: MBP (N, cleaved yes); poly-N-tag, His8-tag, TEV site (N, cleaved yes); made in house; host or cells: E. coli T7-express with pGro7 (GroEL/ES)
# T1 sequence (P19793 225-462): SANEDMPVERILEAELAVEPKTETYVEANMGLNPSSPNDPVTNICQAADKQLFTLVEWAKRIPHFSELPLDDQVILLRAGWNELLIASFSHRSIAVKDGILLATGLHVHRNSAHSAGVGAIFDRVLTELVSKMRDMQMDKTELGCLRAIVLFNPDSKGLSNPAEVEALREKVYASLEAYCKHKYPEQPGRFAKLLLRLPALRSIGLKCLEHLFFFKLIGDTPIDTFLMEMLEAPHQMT
# Protocol: (§1) For hit validation, we employed secondary assays with orthogonal readouts to confirm fragment activities. Biochemical activity assays were chosen for the enzymes sEH, LTA4H, and 5‐LOX. […] RXRα and FXR modulation was assessed in cell‐based hybrid reporter gene assays. All ten compounds were tested at a single concentration of 500 μM in the sEH and LTA4H activity assays and with a concentration of 100 μM on 5‐LOX, RXRα, and FXR. Fragments showing an inhibition greater than 50 % (sEH‐H and LTA4H) or greater than 70 % (5‐LOX) as well as the hits determined in the DSF experiments were further characterized in full concentration‐response curves between 0.1 and 1000 μM. […] As alternative cell‐free assay we employed isothermal titration calorimetry (ITC) to determine binding affinity of the fragments towards the LBDs of both nuclear receptors. ITC was performed with a protein concentration of 50 μM and compound concentrations of 250 μM. […]
# Final concentration per well was 3 nM sEH-Fl, 0.001 % Triton X-100, 25 mM Bis-tris, 0.1 mg/ml BSA, pH = 7.0, 1.6% DMSO […]
# [1] = test system: sEH, LTA4H, 5‐LOX, FXR, RXR; assay: Orthogonal (secondary) assays, summary statements over the targets
# Protocol: as §1
# % (5-LOX) as well as the hits determined in the DSF experiments were further measured with concentrations between 1000 µM and 0.1 µM (sEH-H and LTA4H) and between 300 µM and 1 µM (5-LOX). […] The 5-LOX activity assay was performed with one point per concentration and repeated 3 times Raw data was first analyzed in Microsoft Office Excel (2013), before IC50 curves were plotted and further analyzed using GraphPad Prism 7 and GraphPad Prism 8 for the shown graphs .
# The eight approved drugs were measured in the orthogonal assay systems analogous to the fragments. […]
# For the sEH-H and LTA4H, they were measured as triplicate in concentrations between 1000 µM and 1 µM and each measurement was repeated three times. For the 5-LOX they were measured as single point measurement in three different experiments with concentrations between 300 µM and 1 µM. […]
# The sEH-H activity assay was performed adapted from Hahn et al.5 and Lukin et al.6. […] The Plate was measured every minute for 45 min. […]
# LTA4H = molecular target: T2, LTA4H (Homo sapiens, UniProt P09960); assay: ITC measurement LTA4H; assay type: binding; conditions: 25 °C, read-out: LTA4H K d
# T2 construct: made in house; host or cells: E. coli BL21 (DE3)
# T2 sequence (P09960 1-611): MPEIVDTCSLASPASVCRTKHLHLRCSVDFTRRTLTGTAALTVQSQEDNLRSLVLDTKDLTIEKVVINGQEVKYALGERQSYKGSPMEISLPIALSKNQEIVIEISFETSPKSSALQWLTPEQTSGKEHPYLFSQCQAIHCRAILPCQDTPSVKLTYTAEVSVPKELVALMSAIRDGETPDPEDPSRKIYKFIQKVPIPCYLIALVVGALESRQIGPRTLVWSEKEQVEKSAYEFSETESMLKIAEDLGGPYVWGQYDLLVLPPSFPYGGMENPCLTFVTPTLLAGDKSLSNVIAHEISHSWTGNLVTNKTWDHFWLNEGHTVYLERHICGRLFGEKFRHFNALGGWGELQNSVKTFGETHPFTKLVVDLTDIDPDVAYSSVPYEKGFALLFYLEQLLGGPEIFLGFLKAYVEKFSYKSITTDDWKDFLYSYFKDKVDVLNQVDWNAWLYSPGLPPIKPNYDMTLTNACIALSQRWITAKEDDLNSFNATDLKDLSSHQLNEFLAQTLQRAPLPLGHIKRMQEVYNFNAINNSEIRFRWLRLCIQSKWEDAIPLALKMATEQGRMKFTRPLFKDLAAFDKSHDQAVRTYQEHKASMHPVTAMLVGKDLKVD
RXRα K d (RXRα),Kd (LTA4H) [µM],SMILES,confirmation of dual DSF hits in the orthogonal experiments [1]
,,Cc1cc(=O)n(-c2ccc(C)c(C)c2)[nH]1 [Compound 2],confirmed active
n.b.,5.3,Oc1ccc(-c2ccc(F)cc2F)cc1 [Compound 9],confirmed active
n.b.,1.7,Fc1ccc(-c2c[nH]c3ccccc23)cc1 [Compound 10],confirmed active

SMILES,RXRα K d (RXRα),Kd (LTA4H) [µM],confirmation of dual DSF hits in the orthogonal experiments [1]
c1ccc(N2CCNCC2)nc1 [Compound 1],n.b.,,
